Drawing on US8546377B2 (AbbVie Inc., priority 2009, dated 2013), this text covers EC50, Emax and Ki for 14 molecules.

Each structure is given as a SMILES string. Like-named read-outs stand apart in the source and are kept apart here.

The target of test [1] is T1, 5HT2C receptors (Homo sapiens, UniProt P28335).
T1 sequence (P28335 33-458): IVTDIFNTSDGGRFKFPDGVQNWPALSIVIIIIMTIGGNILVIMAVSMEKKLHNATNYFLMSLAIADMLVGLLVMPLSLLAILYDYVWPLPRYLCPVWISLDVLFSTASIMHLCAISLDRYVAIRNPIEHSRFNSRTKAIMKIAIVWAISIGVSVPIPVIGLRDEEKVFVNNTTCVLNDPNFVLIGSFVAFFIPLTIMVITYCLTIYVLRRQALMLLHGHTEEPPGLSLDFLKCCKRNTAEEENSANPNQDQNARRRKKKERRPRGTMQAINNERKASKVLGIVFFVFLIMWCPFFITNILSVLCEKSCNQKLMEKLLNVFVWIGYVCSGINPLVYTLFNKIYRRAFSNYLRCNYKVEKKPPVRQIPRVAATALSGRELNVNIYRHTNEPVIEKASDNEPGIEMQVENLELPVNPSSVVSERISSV
Put plainly: Human 5-HT2C functional assay in CHO-K1 cells (calcium flux, FLIPR). In kind it is cell-based. Details: expressed in transfected cells; host or cells: CHO-K1 cells. As to conditions: for Emax: percentage relative to the effect of serotonin. A digest of the protocol:
(§1)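 EC50 came from a 4-parameter logistic fit, with Emax expressed relative to serotonin, of intracellular Ca2+ rises read on FLIPR at 480/530 nm, 25° C, over 3 min. Compounds ran from 10 μM in six 1:10 steps (0.2% DMSO) on serum-starved CHO-K1 transfectants pre-loaded 60 min with Ca4 dye and probenecid.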
In general terms: Calcium assays in cells follow changes in intracellular calcium, usually with a dye or a luminescent sensor.

The target of the next test is T2, 5HT2B receptors (Homo sapiens, UniProt P41595).
T2 construct: expressed in transfected cells; host or cells: CHO-K1 cells
T2 sequence (P41595 whole entry): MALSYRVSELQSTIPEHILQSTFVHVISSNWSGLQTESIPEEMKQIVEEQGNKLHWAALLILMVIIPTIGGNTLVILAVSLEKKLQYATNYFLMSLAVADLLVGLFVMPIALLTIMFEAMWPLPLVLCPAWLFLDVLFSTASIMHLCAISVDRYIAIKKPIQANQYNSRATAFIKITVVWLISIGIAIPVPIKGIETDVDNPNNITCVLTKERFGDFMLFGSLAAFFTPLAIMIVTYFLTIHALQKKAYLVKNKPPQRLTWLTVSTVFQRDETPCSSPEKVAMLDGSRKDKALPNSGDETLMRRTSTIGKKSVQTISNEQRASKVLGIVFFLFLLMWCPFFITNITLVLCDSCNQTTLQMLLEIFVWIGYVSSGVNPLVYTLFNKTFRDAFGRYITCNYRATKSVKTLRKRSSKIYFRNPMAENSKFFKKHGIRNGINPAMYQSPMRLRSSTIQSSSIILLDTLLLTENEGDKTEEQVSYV
Put plainly: Human 5-HT2B functional assay in CHO-K1 cells (calcium flux, FLIPR). The test is classed as cell-based. The conditions noted are these: for Emax: CHO-K1, read-out: Emax (%), 5-HT2B Agonist Activity. Summed up:
as §1

Test [2] has as its target T3, human serotonin 5-HT2c receptor (Homo sapiens, UniProt P28335).
T3 construct: expressed in transfected cells; host or cells: CHO cells (membrane homogenate)
T3 sequence (P28335 33-458): T1 sequence (P28335 33-458)
Put plainly: Human 5-HT2C receptor radioligand binding assay (agonist site, [125I](±)DOI). The conditions noted are these: membranes of transfected CHO cells, 0.2 nM [125I](±)DOI, 15 minutes at 37° C. As to the method: To determine the effectiveness of compounds having a formula (I), these compounds can be evaluated in a radioligand binding assay for the agonist site of the human serotonin 5-HT2c receptor or in vitro models of cellular function.
(i) Human 5-HT2C Receptor Radioligand Binding Assay
Affinity of compounds for the agonist site of the 5-HT2c receptor in transfected CHO cells was determined in a radioligand binding assay essentially as described by Bryant, H. U., et al., Life Sciences (1996) 59(15), 1259-1268.

Test [3] addresses T1, 5HT2C receptors. Put plainly: Human 5-HT2C functional assay in 1321N1 cells (intracellular calcium, FLIPR). The test is classed as cell-based. Details: expressed in transfected cells; host or cells: 1321N1 cells. The conditions noted are these: for EC50: 1321N1 cells stably transfected, maximum calcium response, read-out: EC50 (μM), 5-HT2c Agonist Activity; for Emax: 1321N1 cells, percentage relative to the effect of serotonin, read-out: Emax (%), 5-HT2c Agonist Activity. As to the method: (ii) Human 5-HT2C Functional Assay in 1321N1 Cells
Functional activity was determined by testing the effect of the compounds on intracellular calcium levels in 1321N1 cells stably transfected with the human 5-HT2C receptor. Cells were seeded into 96-well plates at 50,000 cells/well and grown overnight in tissue culture medium (DMEM with Glutamax I (Invitrogen), containing 10% dFCS, 50 μg/mL Gentamicin, 400 μg/mL Geneticin) at 37° C. and 7% CO2. Growth medium was replaced by medium without dFCS for overnight incubation. Cells were loaded with a fluorescent calcium-sensitive dye in the presence of 1% probenicid according to the manufacturer's protocol (Fluo4 AM, Molecular Devices). Serial compound dilutions (final concentrations 10^−10 to 10^−5 M) were added to the cells either alone or in the presence of serotonin (10^−9 M) and the maximum calcium response was determined using a FLIPR instrument (Molecular Devices). Concentration-response curves were fitted using a four-parameter logistic equation (GraphPad Prism). The concentration at which the compound exerts half its maximal effect is named the ‘effective concentration 50’ or ‘EC50’ and is listed in Table 2.
Emax is the maximum functional response or efficacy expressed as a percentage relative to the effect of serotonin.

[4] abbreviates: CHO-K1, read-out: Emax (%), 5-HT2c Agonist Activity, CHO-K1 cells.

Usually EC50 stands for the concentration at which the effect is half-maximal. What is called Emax is the greatest response seen or fitted, relative to the assay's reference. By Ki is commonly meant a dissociation constant, usually derived from enzyme kinetics or from competition with a known ligand. Low values mean tighter binding, high ones weaker binding. With `Brc1ccc2c(c1)NCCC1CNCCN21` (stereo not drawn) [Example 19, 9-bromo-1,2,3,4,4a,5,6,7-octahydropyrazino[1,2-a][1,5]benzodiazepine], the results for the EC50 at 5HT2C receptors [1], on 5HT2B receptors and at 5HT2C receptors [3] were 0.02 µM, greater than 10 µM and 0.0283 µM, respectively. Besides, the Emax on 5HT2C receptors [1] (setting [4]) is greater than 120%; on 5HT2C receptors [3], 85.5%. Also, the Ki in test [2] was determined as 0.14 µM.
Take `O=C1C[C@H]2CNCCN2c2cc(Cl)c(Cl)cc2N1` [Example 37, (4aS)-9,10-dichloro-1,2,3,4,4a,5-hexahydropyrazino[1,2-a][1,5]benzodiazepin-6(7H)-one]: the EC50 on 5HT2C receptors [1] was 0.0008 µM; on 5HT2B receptors, 0.003 µM; at 5HT2C receptors [3], 0.0032 µM. Moreover, the maximum response (Emax) on 5HT2C receptors [1] (setting [4]) was found to be 100%; on 5HT2B receptors, 100%; at 5HT2C receptors [3] it was 99.5%. Further, affinity in test [2] was put at a Ki of 0.014 µM.
As to `O=C1NCC2CNCCN2c2ccccc21` (stereo not drawn) [Example 46, 2,3,4,4a,5,6-hexahydropyrazino[1,2-a][1,4]benzodiazepin-7(1H)-one], the EC50 at 5HT2C receptors [1] was 0.008 µM; on 5HT2B receptors, 0.3 µM; at 5HT2C receptors [3] it was 0.0059 µM. The Emax at 5HT2C receptors [1] (setting [4]) was greater than 120%; at 5HT2B receptors, 80%; at 5HT2C receptors [3] it was 93%. In addition, the inhibitory constant (Ki) in test [2] was 0.033 µM.
Consider `O=C1CC2CNCCN2c2cc(F)ccc2N1` (stereo not drawn) [Example 35, 10-fluoro-1,2,3,4,4a,5-hexahydropyrazino[1,2-a][1,5]benzodiazepin-6(7H)-one], for which the EC50 at 5HT2C receptors [1] was 0.02 µM; on 5HT2B receptors, 0.6 µM; at 5HT2C receptors [3] it was 0.052 µM. The maximal response (Emax) on 5HT2C receptors [1] (setting [4]) was greater than 120%; on 5HT2B receptors it was 80%; at 5HT2C receptors [3], 100%. Also, the Ki in test [2] is 0.11 µM.
With `CCOc1ccc2c(c1)N1CCNCC1CC(=O)N2` (stereo not drawn) [Example 44, 10-ethoxy-1,2,3,4,4a,5-hexahydropyrazino[1,2-a][1,5]benzodiazepin-6(7H)-one], the EC50 at 5HT2C receptors [1] (CHO-K1 cells over-expressing 5HT2C, calcium flux, read-out: EC50 (μM), 5-HT2c Agonist Activity) was 0.03 µM; at 5HT2B receptors (CHO-K1 cells over-expressing 5HT2B, calcium flux, read-out: EC50 (μM), 5-HT2B Agonist Activity) it was greater than 10 µM; on 5HT2C receptors [3], 0.0445 µM. Further, the Emax on 5HT2C receptors [1] (CHO-K1 cells, read-out: Emax (%), 5-HT2c Agonist Activity) was greater than 120%; at 5HT2C receptors [3], 90%. In addition, in test [2], the affinity corresponds to a Ki of 0.15 µM.
Consider `Cc1ccc2c(c1)N1CCNC[C@@H]1CC(=O)N2` [Example 36, (4aS)-10-methyl-1,2,3,4,4a,5-hexahydropyrazino[1,2-a][1,5]benzodiazepin-6(7H)-one], for which the concentration giving a half-maximal response (EC50) on 5HT2C receptors [1] was found to be 0.002 µM; at 5HT2B receptors, 0.008 µM; at 5HT2C receptors [3], 0.0015 µM. The Emax was greater than 120% at 5HT2C receptors [1] (setting [4]), 100% on 5HT2B receptors and 104% at 5HT2C receptors [3]. This molecule showed an inhibitory constant (Ki) in test [2] of 0.0091 µM.
Regarding `COc1ccc2c(c1)N1CCNC[C@@H]1CC(=O)N2` [Example 43, (4aS)-10-methoxy-1,2,3,4,4a,5-hexahydropyrazino[1,2-a][1,5]benzodiazepin-6(7H)-one], the EC50 on 5HT2C receptors [1] came to 0.01 µM; at 5HT2B receptors, 0.06 µM; at 5HT2C receptors [3], 0.0138 µM. The figures for the Emax on 5HT2C receptors [1] (setting [4]), at 5HT2B receptors and on 5HT2C receptors [3] were greater than 120%, 80% and 86%, respectively. Also, the inhibition constant Ki in test [2] worked out at 0.066 µM.
In the case of `Cc1cccc2c1NC(=O)CC1CNCCN21` (stereo not drawn) [Example 40, 8-methyl-1,2,3,4,4a,5-hexahydropyrazino[1,2-a][1,5]benzodiazepin-6(7H)-one], the EC50 on 5HT2C receptors [1] was 0.005 µM; on 5HT2B receptors, greater than 10 µM; on 5HT2C receptors [3], 0.0068 µM. In addition, the results for the Emax on 5HT2C receptors [1] (setting [4]) and at 5HT2C receptors [3] were 110% and 89.5%, respectively. The molecule further yielded a Ki in test [2] of 0.035 µM.
Regarding `CN1CCN2c3ccccc3NC(=O)CC2C1` (stereo not drawn) [Example 38, 3-methyl-1,2,3,4,4a,5-hexahydropyrazino[1,2-a][1,5]benzodiazepin-6(7H)-one], the EC50 on 5HT2C receptors [1] is 0.08 µM; on 5HT2B receptors it was greater than 10 µM; on 5HT2C receptors [3], 0.0663 µM. The Emax at 5HT2C receptors [1] (setting [4]) worked out at 100%; at 5HT2C receptors [3], 68%. Affinity in test [2] was put at a Ki of 0.2 µM.
On to `O=C1C[C@H]2CNCCN2c2cc(Cl)ccc2N1` [Example 41, (4aS)-10-chloro-1,2,3,4,4a,5-hexahydropyrazino[1,2-a][1,5]benzodiazepin-6(7H)-one], for which the results for the concentration for a half-maximal effect (EC50) on 5HT2C receptors [1], on 5HT2B receptors and at 5HT2C receptors [3] were 0.0008 µM, 0.006 µM and 0.002 µM, respectively. Besides, the Emax on 5HT2C receptors [1] (setting [4]) is greater than 120%; on 5HT2B receptors it was 110%; on 5HT2C receptors [3], 99.5%. Besides, the inhibitory constant (Ki) in test [2] turned out to be 0.005 µM.
Consider `O=C1CC2CNCCN2c2cccc(F)c2N1` (stereo not drawn) [Example 32, 8-fluoro-1,2,3,4,4a,5-hexahydropyrazino[1,2-a][1,5]benzodiazepin-6(7H)-one], for which the EC50 on 5HT2C receptors [1] was 0.008 µM; at 5HT2B receptors it was greater than 10 µM; on 5HT2C receptors [3], 0.0258 µM. For the same molecule, the values for the Emax at 5HT2C receptors [1] (setting [4]) and on 5HT2C receptors [3] were 100% and 102%, respectively. Also, the affinity in test [2], expressed as Ki, was 0.042 µM.
On to `O=C1CC2CNCCN2c2cc(-c3cccc(Cl)c3)ccc2N1` (stereo not drawn) [Example 7, 10-(3-chlorophenyl)-1,2,3,4,4a,5-hexahydropyrazino[1,2-a][1,5]benzodiazepin-6(7H)-one], for which, in test [2], affinity was put at a Ki of 0.041 µM. Also, on 5HT2C receptors [3], the EC50 is 0.0279 µM and the maximum response (Emax) was found to be 86%.
The molecule `Clc1cc2c(cc1Cl)N1CCNCC1CCN2` (stereo not drawn) [Example 16, 9,10-dichloro-1,2,3,4,4a,5,6,7-octahydropyrazino[1,2-a][1,5]benzodiazepine] gave a Ki in test [2] of 0.004 µM. Further, on 5HT2C receptors [3], the 50% effective concentration (EC50) came to 0.0018 µM and the Emax is 91%.
For `O=C1CC2CNCCN2c2c(F)cccc2N1` (stereo not drawn) [Example 33, 11-fluoro-1,2,3,4,4a,5-hexahydropyrazino[1,2-a][1,5]benzodiazepin-6(7H)-one], the figures for the EC50 on 5HT2C receptors [1], at 5HT2B receptors and at 5HT2C receptors [3] were 0.01 µM, greater than 10 µM and 0.0142 µM, respectively. Further, the Emax at 5HT2C receptors [1] (setting [4]) is greater than 120%; on 5HT2C receptors [3], 98%. This molecule yielded an inhibition constant Ki in test [2] of 0.042 µM.
